# USRE47193E1, “Selectively substituted quinoline compounds” (EISAI R&D MANAGEMENT CO., LTD., priority 2013, dated 2019)
# Where two headings read alike, the source gives them in different places.
# Legend:
# human TLR8 = target: T1, human TLR8 (Homo sapiens, UniProt Q9NR97); experiment: HEK-293 human TLR8 NF-kappaB luciferase reporter assay (CL097); type: cell-based
# T1 construct: host or cells: HEK-293, then stably transfected with pNiFty2(NF-kappaB)-luciferase reporter
# T1 sequence (Q9NR97 27-1041): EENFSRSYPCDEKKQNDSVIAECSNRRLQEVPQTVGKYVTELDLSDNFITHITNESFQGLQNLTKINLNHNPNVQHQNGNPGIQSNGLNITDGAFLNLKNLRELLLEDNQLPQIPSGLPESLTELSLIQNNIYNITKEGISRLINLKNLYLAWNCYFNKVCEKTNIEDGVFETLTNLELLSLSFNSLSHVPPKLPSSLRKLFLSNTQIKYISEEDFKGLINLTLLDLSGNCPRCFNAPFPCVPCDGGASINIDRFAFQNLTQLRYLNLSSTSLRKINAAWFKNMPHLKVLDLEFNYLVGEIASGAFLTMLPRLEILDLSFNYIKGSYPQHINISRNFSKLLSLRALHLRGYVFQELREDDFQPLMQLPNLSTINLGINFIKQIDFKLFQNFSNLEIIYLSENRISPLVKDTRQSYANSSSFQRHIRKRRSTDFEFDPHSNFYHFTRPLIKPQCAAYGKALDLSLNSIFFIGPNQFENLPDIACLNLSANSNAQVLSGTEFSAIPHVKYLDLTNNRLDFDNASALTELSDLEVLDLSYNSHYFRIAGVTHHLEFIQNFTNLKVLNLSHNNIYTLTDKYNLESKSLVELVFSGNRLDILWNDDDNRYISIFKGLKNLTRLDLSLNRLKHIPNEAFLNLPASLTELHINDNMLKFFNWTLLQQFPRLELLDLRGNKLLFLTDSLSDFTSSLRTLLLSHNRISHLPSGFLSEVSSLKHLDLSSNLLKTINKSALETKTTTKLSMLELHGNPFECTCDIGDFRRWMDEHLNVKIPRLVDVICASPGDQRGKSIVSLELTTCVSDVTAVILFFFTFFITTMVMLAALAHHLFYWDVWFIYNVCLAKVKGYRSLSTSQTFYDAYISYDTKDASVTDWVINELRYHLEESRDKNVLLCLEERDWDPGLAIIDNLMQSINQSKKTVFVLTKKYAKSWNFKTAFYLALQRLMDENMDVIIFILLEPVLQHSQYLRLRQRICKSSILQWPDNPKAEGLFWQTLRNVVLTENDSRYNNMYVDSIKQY
# Method: Effects on mouse TLR7 were also compared. Cells were stimulated overnight with TLR7/8 agonist CL097 at pre-determined ED70-80: 3 ug/ml for HEK-hTLR7, 1.5 ug/ml for HEK-mTLR7 and 12 ug/ml for HEK-hTLR8, before reading luminescence intensity. Three tests were performed and IC50 value was determined using Graphpad Prism 6 nonlinear regression curve fit.
# HEK-293 cells (ATCC) were engineered to stably express a NF-kappaB transcription factor inducible E-selectin (ELAM-1) luciferase reporter derived from the plasmid pGL3 (Promega) containing base pairs −2241 bp to −254 bp from the promoter of the human E-selectin gene (Accession No. NM_000450). These cells were then subsequently engineered to stably and individually express human TLR4, TLR7 or TLR9 full-length ORF cDNAs. Human TLR4 cDNA (Accession No. NM_138554) was cloned into pcDNA 3.0 expression vector (Invitrogen). TLR4 transfected cells were also engineered to express human MD-2 co-receptor [MD-2 cDNA (Accession No. NM_015364) was cloned into the pEF-BOS vector] and were supplemented with 10 nM soluble CD14 (R&D Systems) in the media to optimize LPS responsiveness. Human TLR9 cDNA (Accession No. NM_017442) was cloned into the pBluescript II KS vector (Agilent). Human TLR7 cDNA (Accession No. NM_016562) was obtained from OriGene. HEK-293 cells stably expressing human TLR8 (Accession No. NM_138636) or mouse TLR7 (Accession No. NM_133211) were purchased from InvivoGen and were then stably transfected with pNiFty2(NF-kappaB)-luciferase reporter plasmid (InvivoGen). Each cell type was plated in Dulbecco's modified Eagle's medium (DMEM) containing 10% fetal bovine serum (FBS) at a density of 2.22×10^5 cells/ml into a 384-well plate and incubated for 2 days at 37° C., 5% CO2. Varying concentrations of antagonist compounds were then added. Cells were then incubated for another 30 minutes before adding the appropriate TLR agonist as follows (final concentrations indicated): lipopolysaccharide (LPS; Sigma) at 10 ng/ml for TLR4, CL097 (InvivoGen) at 3 ug/ml for human TLR7 and TLR8 and mouse TLR7, and CvG-2006-2A [sequence: […] (SEQ ID NO: 1) with phosphorothioate backbone, synthesized by Sigma-Aldrich] at 0.6 uM for TLR9.
# Human TLR7/8 = experiment: Human PBMC cell-based assay, TLR7/8 stimulus (RNA-Ig), cytokine ELISA; settings: primary human PBMC assay, TLR7/8 potency; ligand not given; read-out: Human PBMCs IC50
# Outline: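 Healthy-donor human PBMC, 2×10^5 cells/well (1×10^5 in later assay), pre-treated 30 min with compound (0.1% DMSO). Stimulated 20 h at 37 °C with RNA-Ig: 26-mer U1 snRNA stem loop IV phosphorothioate RNA at 2.5 μM plus anti-ssDNA antibody (1:25 or 1 ug/ml). Supernatant cytokines by ELISA.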
# mouse TLR7 = target: T2, mouse TLR7 (Mus musculus, UniProt P58681); experiment: Short-term in vivo (STIV) assay: oral dosing, R848 s.c., plasma IL-6; design: female BALB/c mice (Jackson Labs, Bar Harbor, Me.) were dosed by oral gavage; tissue Jackson Labs; host or cells: living female BALB/c mice; plasma IL-6 after s.c. R848
# T2 sequence (P58681 27-1050): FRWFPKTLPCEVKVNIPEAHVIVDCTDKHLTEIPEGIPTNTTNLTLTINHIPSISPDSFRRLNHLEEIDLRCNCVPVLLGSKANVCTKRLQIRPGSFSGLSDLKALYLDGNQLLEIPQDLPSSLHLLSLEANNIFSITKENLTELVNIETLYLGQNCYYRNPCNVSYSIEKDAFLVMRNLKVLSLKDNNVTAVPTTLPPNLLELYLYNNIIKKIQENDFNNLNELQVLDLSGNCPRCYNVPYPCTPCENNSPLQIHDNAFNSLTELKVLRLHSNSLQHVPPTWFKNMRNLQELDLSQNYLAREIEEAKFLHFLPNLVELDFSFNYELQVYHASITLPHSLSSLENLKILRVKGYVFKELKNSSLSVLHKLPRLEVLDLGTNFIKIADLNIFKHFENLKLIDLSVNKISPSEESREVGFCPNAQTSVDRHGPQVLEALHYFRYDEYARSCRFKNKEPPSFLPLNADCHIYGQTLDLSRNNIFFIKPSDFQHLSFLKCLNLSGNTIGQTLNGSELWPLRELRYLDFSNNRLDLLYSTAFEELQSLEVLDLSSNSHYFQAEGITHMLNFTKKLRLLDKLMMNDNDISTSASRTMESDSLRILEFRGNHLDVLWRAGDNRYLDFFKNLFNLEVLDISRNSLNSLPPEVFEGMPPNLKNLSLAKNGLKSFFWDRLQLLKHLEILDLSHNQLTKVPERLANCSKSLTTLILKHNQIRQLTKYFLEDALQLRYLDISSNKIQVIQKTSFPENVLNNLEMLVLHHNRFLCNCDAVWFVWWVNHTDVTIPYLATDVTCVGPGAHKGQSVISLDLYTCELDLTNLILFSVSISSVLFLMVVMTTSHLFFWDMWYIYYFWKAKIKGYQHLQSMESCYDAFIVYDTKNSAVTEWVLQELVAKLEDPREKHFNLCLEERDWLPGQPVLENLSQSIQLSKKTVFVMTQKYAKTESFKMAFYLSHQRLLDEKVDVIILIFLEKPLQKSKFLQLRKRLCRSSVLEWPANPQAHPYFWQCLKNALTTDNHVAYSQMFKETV
# Outline: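 Female BALB/c mice (6–8 weeks) dosed orally with compound in 0.5% aqueous methyl-cellulose at 33, 100 or 300 mg/kg; at various times afterwards given 15 ug R848 s.c. to stimulate TLR7. Plasma IL-6 measured by ELISA to gauge potency and duration of action.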
# [1] = HEK-293 assay format, read-out: HEK/hTLR8 IC50
SMILES,IC50 (human TLR8; [1]) [nM],further results
C[C@@H]1CN(c2ccc(C#N)c3ncccc23)C[C@H](CN2CCC(c3ccccc3)C2)O1 (some centres unmarked) [ER-886854],46,IC50 (Human TLR7/8): 20 nM
C[C@@H]1CN(c2ccc(C#N)c3ncccc23)C[C@H](CN2CCCCC2CO)O1 (some centres unmarked) [ER-886955],83,IC50 (Human TLR7/8): 129 nM
"CC1CN(c2ccc(C#N)c3ncccc23)CC(C(O)CCc2ccccc2)O1 (single isomer, unassigned) [ER-886568]",5,IC50 (Human TLR7/8): 79 nM
CCOc1cccnc1NC[C@H]1CN(c2ccc(C#N)c3ncccc23)C[C@@H](C)O1 [ER-887587],1.8,IC50 (Human TLR7/8): 1 nM
C[C@@H]1CN(c2ccc(C#N)c3ncccc23)C[C@H](CN2CC[C@@H](c3ccccc3)C2)O1 [ER-886818],81,–
"C=CC(O)[C@H]1CN(c2ccc(C#N)c3ncccc23)C[C@@H](C)O1 (single isomer, unassigned) [ER-886431]",31,–
C[C@@H]1CN(c2ccc(C#N)c3ncccc23)C[C@H](C(=O)CCc2ccccc2)O1 [ER-886629],5,–
CCN(CC)C[C@H]1CN(c2ccc(C#N)c3ncccc23)C[C@@H](C)O1 [ER-886508],186,–
N#Cc1ccc(N2CCOC(CCl)C2)c2cccnc12 (centres unmarked) [ER-879484],18,–
C[C@@H]1CN(c2ccc(C#N)c3ncccc23)C[C@H](CNCc2ccccc2)O1 [ER-886509],–,"IC50 (human TLR8; HEK/hTLR8 IC50, HEK-293 assay format): 119 nM"
C[C@@H]1CN(c2ccc(C#N)c3ncccc23)C[C@H](CN2CCN[C@@H](C)C2)O1 [ER-887270],–,"IC50 (Human TLR7/8): 1 nM; % Suppression vs. Vehicle (mouse TLR7; 6 h, 33 mg/kg): 98%; % Suppression vs. Vehicle (mouse TLR7; 13 h, 33 mg/kg): 37%; % Suppression vs. Vehicle (mouse TLR7; 13 h, 100 mg/kg): 81%; % Suppression vs. Vehicle (mouse TLR7; 13 h, 300 mg/kg): 99%; % Suppression vs. Vehicle (mouse TLR7; 24 h, 33 mg/kg): 25%; % Suppression vs. Vehicle (mouse TLR7; 24 h, 100 mg/kg): 26%; % Suppression vs. Vehicle (mouse TLR7; 24 h, 300 mg/kg): 100%"
CC1CN(c2ccc(C#N)c3ncccc23)CC(C(=O)NC2CCCN(C)C2)O1 (centres unmarked) [ER-899688],–,"IC50 (Human TLR7/8): 11 nM; % Suppression vs. Vehicle (mouse TLR7; 6 h, 100 mg/kg): 10%; % Suppression vs. Vehicle (mouse TLR7; 13 h, 100 mg/kg): 96%"
CC1CN(c2ccc(C#N)c3ncccc23)CC(C(=O)NC2C3CNCC32)O1 (centres unmarked) [ER-899418],–,"IC50 (Human TLR7/8): 5 nM; % Suppression vs. Vehicle (mouse TLR7; 6 h, 100 mg/kg): 19%; % Suppression vs. Vehicle (mouse TLR7; 13 h, 100 mg/kg): 10%"
CC1CN(c2ccc(C#N)c3ncccc23)CC(CN2CCCC2C(C)C)O1 (mixture of isomers) [ER-886816],107,–
C[C@@H]1CN(c2ccc(C#N)c3ncccc23)C[C@H](CN2CCN(C)[C@H](C)C2)O1 [ER-890346],–,"IC50 (Human TLR7/8): 6 nM; % Suppression vs. Vehicle (mouse TLR7; 3 h, 33 mg/kg): 99%; % Suppression vs. Vehicle (mouse TLR7; 19 h, 11 mg/kg): 0%; % Suppression vs. Vehicle (mouse TLR7; 19 h, 33 mg/kg): 20%"

# More lines, main results first:
IC50 (human TLR8; [1]) [nM],SMILES,further results
193,C[C@@H]1CN(c2ccc(C#N)c3ncccc23)C[C@H](CNC2CCCCCC2)O1 [ER-887444],–
14,"CC1CN(c2ccc(C#N)c3ncccc23)CC(C(O)C2CCCCC2)O1 (single isomer, unassigned) [ER-886533]",–
80,C[C@@H]1CN(c2ccc(C#N)c3ncccc23)C[C@H](CNC(=O)C(C)(C)C)O1 [ER-879713],–
25,C[C@@H]1CN(c2ccc(C#N)c3ncccc23)C[C@H](CF)O1 [ER-885621],–
11,COc1ccc(N2C[C@@H](C)O[C@@H](C)C2)c2cccnc12 [ER-885113],–
11,C[C@@H]1CN(c2ccc(C#N)c3ncccc23)C[C@H](CN2CCC[C@@H](N)C2)O1 [ER-887928],–
0.5,CC1CCCCC1NC[C@H]1CN(c2ccc(C#N)c3ncccc23)C[C@@H](C)O1 (some centres unmarked) [ER-887539],–
5,"CCCCC(O)C1CN(c2ccc(C#N)c3ncccc23)CC(C)O1 (single isomer, unassigned) [ER-886530]",–
30,"CC1CN(c2ccc(C#N)c3ncccc23)CC(C(O)C2CCCCC2)O1 (single isomer, unassigned) [ER-886532]",–
147,C[C@@H]1CN(c2ccc(C#N)c3ncccc23)C[C@H](COCC2CCCCC2)O1 [ER-885930],–
182,C[C@@H]1CN(c2ccc(C#N)c3ncccc23)C[C@H](CN2CCCC2)O1 [ER-886507],–
37,CC(C)COC[C@H]1CN(c2ccc(C#N)c3ncccc23)C[C@@H](C)O1 [ER-885892],–
5,C[C@@H]1CN(c2ccc(C#N)c3ncccc23)C[C@H](COc2ccccc2)O1 [ER-886514],–
10,C[C@H]1CN(c2ccc(C#N)c3ncccc23)C[C@H](C)O1 [ER-880191],–
